For two compounds, IC50 results are on record in ChEMBL document CHEMBL5729152, “Lysyl oxidase-like 2 inhibitors and uses thereof” (2022).

Usually pIC50 stands for the IC50 on a negative log10 scale, so that one unit is a factor of ten.

The target in the assay is T1, Lysyl oxidase homolog 2 (Homo sapiens, UniProt Q9Y4K0).
T1 sequence (Q9Y4K0 whole entry): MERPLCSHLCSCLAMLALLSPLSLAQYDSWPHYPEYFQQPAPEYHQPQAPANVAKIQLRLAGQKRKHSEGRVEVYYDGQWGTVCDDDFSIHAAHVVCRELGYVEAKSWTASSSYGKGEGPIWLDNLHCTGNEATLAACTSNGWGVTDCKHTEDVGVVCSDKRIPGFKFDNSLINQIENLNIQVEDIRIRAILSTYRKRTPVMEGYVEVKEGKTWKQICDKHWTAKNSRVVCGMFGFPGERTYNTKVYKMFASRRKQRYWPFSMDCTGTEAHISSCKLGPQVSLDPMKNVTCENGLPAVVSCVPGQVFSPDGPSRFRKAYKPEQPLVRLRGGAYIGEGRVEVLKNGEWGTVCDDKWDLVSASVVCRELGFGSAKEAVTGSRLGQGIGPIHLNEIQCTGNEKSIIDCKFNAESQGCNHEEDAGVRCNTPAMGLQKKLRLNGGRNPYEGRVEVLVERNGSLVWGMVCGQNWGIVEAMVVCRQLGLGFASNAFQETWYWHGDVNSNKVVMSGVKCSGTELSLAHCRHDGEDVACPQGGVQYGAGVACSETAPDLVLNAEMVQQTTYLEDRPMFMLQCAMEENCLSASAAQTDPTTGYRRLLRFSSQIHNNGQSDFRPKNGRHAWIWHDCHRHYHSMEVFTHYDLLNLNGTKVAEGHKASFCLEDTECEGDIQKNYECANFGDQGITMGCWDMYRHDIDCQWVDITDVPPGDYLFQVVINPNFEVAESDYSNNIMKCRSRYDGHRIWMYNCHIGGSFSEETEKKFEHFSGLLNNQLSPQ
The experiment in a line: Human LOXL2 Amine Oxidase Activity Assay: LOXL2 amine oxidase activity is evaluated by measuring Amplex Red fluorescence using 10-20× concentrated conditioned media from CHO cells stably expressing human LOXL2. To assay for amine oxidase activity, 10 μL of the concentrated conditioned media is incubated with 2 μL of test compound in DMSO and 73 μL Assay Buffer (50 mM Borate Buffer, pH8) for 2 h at 37° C. After the 2 h incubation, 5 μl of 10 mM 1,5-Diaminopentane (DAP) diluted in Assay Buffer and 10 μl of Amplex Red Mix (8.5 μl Assay Buffer+0.5 μl of 10 mM Amplex Red+1 μl of 500 U/ml Horseradish Peroxidase) are added and the plate mixed and immediately placed on the FlexStaion for fluorescence measurements. Fluorescence is read in kinetic mode every 2 min for 1 hour at excitation=544 and emission=590. The amine oxidase activity is calculated from the slope of the linear portion of the curve.

Molecules are shown by their SMILES. pIC50: −log10 of the molar value.

Turning to `NCc1ccnc(C(=O)NCc2ccccc2)c1`, the pIC50 is over 6.52.

Take `CCN1CCN(Cc2ccc(CNC(=O)c3cccc(Oc4cc(CN)ccn4)c3)cc2)CC1`: the negative-log IC50 (pIC50) is over 6.52.
